This is an account of results in ChEMBL document CHEMBL3870365, “Development of 4-Heteroarylamino-1'-azaspiro[oxazole-5,3'-bicyclo[2.2.2]octanes] as α7 Nicotinic Receptor Agonists” (ACS Med Chem Lett, 2017).

Molecules are shown by their SMILES.

Data set [1] in a line: Plasma concentration in C57BL/6 mouse at 0.03 mg/kg, sc after 30 mins. Format: ADME, organism-based.
A short description of data set [2]: Ratio of drug level in brain to plasma in C57BL/6 mouse at 0.03 mg/kg, sc after 30 mins. It is filed as ADME, organism-based. To be noted: read-out: BPR.
The nature of data set [3]: Fraction unbound in C57BL/6 mouse plasma at 0.03 mg/kg, sc after 30 mins. To be noted: in vivo, 0.5 h. Format: ADME, organism-based.
Data set [4] in a line: in vivo. As to conditions: C57BL/6, mouse, brain/plasma, sc, 0.01 mg/kg.
Data set [5] can be described thus: in vivo. As to conditions: C57BL/6, mouse, plasma, sc, 0.01 mg/kg.
The conditions of data set [6]: mouse, in vivo, sc, 0.01 mg/kg, 0.5 h.

`Clc1ccc2c(NC3=NC[C@@]4(CN5CCC4CC5)O3)ncnn12`: in data set [1], the concentration at 0.5 h was 18 nM. The Kp at 0.5 h in data set [2] worked out at 1.9. This compound also registered a Cp(f) in data set [3] of 50 to 75%.
Compound `Brc1ccc2c(NC3=NC[C@@]4(CN5CCC4CC5)O3)ncnn12` showed a Kp at 0.5 h in “in vivo [4]” of 4.9. Also, the concentration at 0.5 h in the data set “in vivo [5]” came to 7 nM. Also, the Cp(f) in data set [6] fell in the range of 50 to 75%.
